Measurements published in patent publication US12435060B2, “Acylamino bridged heterocyclic compound, and composition and application thereof” (BEIJING SCITECH-MQ PHARMACEUTICALS LIMITED, priority 2019, dated 2025).

How the values were obtained:
RIPK1 = target: T1, RIPK1 (Homo sapiens, UniProt Q13546); experiment: Western blot determination of inhibition of RIPK1 phosphorylation in HT29 cells; format: cell-based; settings: Z-VAD-FMK 20 μM, TNF-α 20 ng/mL, AT-406 100 nM, 7 hours, FIG. 1 and FIG. 2
T1 construct: the phosphorylation of intracellular RIPK1 during the induction of programmed necrosis of HT29 cells; endogenous in cells; host or cells: HT29 cells
T1 sequence (Q13546 1-671): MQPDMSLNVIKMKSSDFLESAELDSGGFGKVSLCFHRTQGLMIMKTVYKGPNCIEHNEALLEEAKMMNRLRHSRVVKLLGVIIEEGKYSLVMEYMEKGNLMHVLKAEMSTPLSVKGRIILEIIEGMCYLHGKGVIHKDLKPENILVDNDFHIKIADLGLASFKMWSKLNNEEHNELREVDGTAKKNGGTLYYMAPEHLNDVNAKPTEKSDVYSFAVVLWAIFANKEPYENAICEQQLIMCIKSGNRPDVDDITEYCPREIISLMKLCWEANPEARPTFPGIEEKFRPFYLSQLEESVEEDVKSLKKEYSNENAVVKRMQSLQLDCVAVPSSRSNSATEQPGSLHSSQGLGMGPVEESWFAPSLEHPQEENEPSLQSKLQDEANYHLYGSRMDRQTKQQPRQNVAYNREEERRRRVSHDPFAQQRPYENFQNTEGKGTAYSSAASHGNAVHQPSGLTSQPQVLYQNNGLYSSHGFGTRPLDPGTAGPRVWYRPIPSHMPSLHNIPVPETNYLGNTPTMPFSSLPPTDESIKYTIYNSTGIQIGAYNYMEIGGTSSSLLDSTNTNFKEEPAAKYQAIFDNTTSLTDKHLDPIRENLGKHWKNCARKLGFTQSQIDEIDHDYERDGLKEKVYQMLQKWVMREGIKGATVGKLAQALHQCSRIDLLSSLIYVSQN
Description: Assay Example 1. Western Blot Determination of Inhibition of Compounds on RIPK1 Phosphorylation in HT29 Cells
Western blot was used to determine the effect of the test compounds on the phosphorylation of intracellular RIPK1 during the induction of programmed necrosis of HT29 cells, verifying the effect of compounds on RIPK1 phosphorylation, and initially estimating the IC50 range of compounds for RIPK1 phosphorylation.
II. Experiment Procedure • 1. […] 40-50 ug of protein sample to be determined or pre-stained two-color protein molecular weight standard were added to each well. • 4. […]

HT29 cells = experiment: Inhibition of cell necrosis (CCK8 method), induced programmed necrosis of HT29 cells; format: cell-based; settings: Homo sapiens, HT-29; rescue from necrosis induced by TNF-α 20 ng/mL, AT-406 1 μM, Z-VAD-FMK 20 μM; 16-20 hours; CCK-8, OD 450 nm
Method in brief: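 Rescue from programmed necrosis was scored by CCK-8 absorbance at 450 nm after 16-20 h of TNF-α (20 ng/mL), AT-406 (1 μM) and Z-VAD-FMK (20 μM) at 37 °C, 5% CO2. HT29 cells had received compound 30 min earlier across nine 4-fold dilutions (top 25000 nM final). IC50 came from % inhibition relative to uninduced and induced-only wells.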

Which results are given for `Cc1ccccc1-c1ccnc(NC(=O)c2nnc(Cc3ccccc3)[nH]2)c1` [Example 2, 5-benzyl-N-(4-(o-methylphenyl)pyridin-2-yl)-4H-1,2,4-triazole-3-carboxamide]?
inhibition of RIPK1 phosphorylation (RIPK1): directly inhibit the phosphorylation activation of RIPK1; IC50 (HT29 cells): 0.1 to 1 µM
